What follows are compounds tested on D54 ERlucT glycosylation luciferase reporter, luminescence, 24 h (assay: blockers of NLG process in reporter cells – D54 ERlucT cells, luminescence, cherry-picks, dose response (AID 624491);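 also: signal gain reflects blocked N-linked glycosylation of a luciferase reporter; actives raise luciferase signal so AC26 marks activators of the reporter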).

| Compound | AC26 [nM] |
| --- | --- |
| N#Cc1cc2[nH]c3ccccc3c2[n+](-c2ccc([N+](=O)[O-])cc2)c1N | 4410 |
| CCOC(=O)c1c(NC(C)=O)sc2c(OCCN(CC)CC)c(Br)ccc12 | 2690 |
| Cc1cccc(N2CCN(C(=O)c3cc(S(=O)(=O)N4CCCC4)cn3C)CC2)c1C | 2050 |
| COc1ccc(C(=O)CSc2nn3c(=O)c(C(C)(C)C)nnc3s2)cc1 | 3870 |
| CCOc1ccc(Nc2nc(N(C)c3ccccc3)nc(N)c2[N+](=O)[O-])cc1 | 92.1 |
| O=C(/C=C/c1cn(-c2ccccc2)nc1-c1cccnc1)c1ccco1 | 628 |
| CCOC(=O)c1cnc2c(C)cc(C)cc2c1NCCCN1CCOCC1 | 3470 |
| CN1C(=O)c2cccc3c(S(=O)(=O)Nc4ccccn4)ccc1c23 | 5030 |
| Cc1ccc(CC(=O)NCc2ccc(F)cc2)cc1 | 824 |
| O=C(Nc1cccc(F)c1)c1cc(S(=O)(=O)N2CCOCC2)ccc1N1CCCC1 | 947 |
| COc1ccc(C(=O)N/N=C/C23CC[C@@H](O)CC2(O)CC[C@@H]2[C@@H]3CCC3(C)C(C4=CC(=O)OC4)CCC23O)cc1 (stereo partly drawn) | 5710 |
| CCOc1ccccc1N1CCN(C(=O)c2cc3ccccc3cc2OC)CC1 | 3440 |
| COc1ccc(-c2nn(C)c(=O)c3ccccc23)cc1NS(C)(=O)=O | 4620 |
| COc1cc2nc(NC(=O)c3ccc(F)cc3Cl)sc(=O)c2cc1OC | 1900 |
| Cc1ccc(C(=O)Nc2cc(S(=O)(=O)N3CCOCC3)ccc2N2CCCC2)cc1 | 1310 |
| c1ccc2c(c1)C1=NCCN1c1ccccc1-2 | 544 |
| c1ccc2c(c1)c1c(c3ccccc32)CN2CCCC2C1 (stereo not drawn) | 2700 |
| Cc1ccc(N2CC(C(=O)Nc3ccc(S(=O)(=O)N4CCOCC4)cc3)CC2=O)cc1Cl (stereo not drawn) | 3860 |
| CC1(C(=O)NCCC(F)(F)F)Cc2c(-c3cccc(C(F)(F)F)c3)ccnc2O1 (stereo not drawn) | 15200 |
| CC(C)(C)S(=O)(=O)N1C[C@H]2CC/C=C\C/C(c3ccccc3)=C\2[C@@H]1CCO | 1030 |
| COc1cccc(C2=NOC(C(=O)NCc3ccc(F)cc3)C2)c1 (stereo not drawn) | 1160 |
| COc1cc(NC(=O)c2cc(-c3ccccc3)nc3c2cnn3C(C)C)cc(OC)c1OC | 1150 |

| Compound | AC26 [nM] |
| --- | --- |
| C#CC[N+](C)(C)CCCCCCCCC | 6070 |
| COc1ccc(CNC(=O)c2cccc3c(-c4cnn(C)c4)coc23)cc1OC | 3960 |
| Nc1ccc(C(=O)N2CCN(S(=O)(=O)c3ccc4c(c3)OCCO4)CC2)cc1[N+](=O)[O-] | 3880 |
| CCN(CC)CCNc1cccc2sc3ccccc3c(=O)c12 | 4840 |
| O=C1C=C(c2cccs2)C[C@H](c2ccccc2)[C@H]1n1nnc([N+](=O)[O-])n1 | 260 |
| COc1cc(C(=O)NCCOc2cc(C)cc(C)c2)cc(OC)c1OC | 2370 |
| Cc1cc2c(cc(C(=O)OCC(=O)NCc3cccs3)n2C(C)C)o1 | 1740 |
| O=C(/C=C/c1cccc(Br)c1)c1ccc2c(c1)OCO2 | 7470 |
| O=C(c1ccc2ncsc2c1)N1CCN(c2cccc(C(F)(F)F)c2)CC1 | 4190 |
| Cc1ccc(C(=O)Nc2ccccc2C(=O)N2CC(C)OC(C)C2)cc1 (stereo not drawn) | 1330 |
| O=C(CN1C(=O)NC2(CCCCCC2)C1=O)Nc1ccc2c(c1)CCC2 | 1970 |
| CCOC(=O)c1c(C)nc2c(c1-c1cc(OC)c(OC)c(OC)c1)C(=O)c1ccccc1-2 | 1560 |
| CCOC(=O)N1CCc2cc(OC)c(OC)c3c2c1cc1cc(OC)c(OC)cc13 | 11100 |
| CC(NC(=O)c1cccc2ccccc12)c1ccc2c(c1)CCCC2 (stereo not drawn) | 6480 |
| Clc1ccc(C2=Nn3c(nnc3-c3cc(-c4ccccc4)n[nH]3)SC2)cc1 | 5130 |
| COc1ccc(C(=O)CSc2nnc(-c3cc4ccccc4cc3O)n2Cc2ccco2)cc1 | 1840 |
| CC(C)COc1ccc(C(=O)OCC(=O)NCc2cccs2)cc1 | 1750 |
| Cc1ccc(S(=O)(=O)N(C)C[C@H]2Oc3ccc(NC(=O)C4CCCCC4)cc3C(=O)N([C@H](C)CO)C[C@H]2C)cc1 | 1140 |
| COC(=O)c1cn(C(=O)c2ccc(OC)cc2)c2ccccc12 | 730 |
| Cc1cc(NC(=O)NC(=O)c2ccccc2NC(=O)C(C)N)ccc1Oc1ncc(Br)cn1 (stereo not drawn) | 1060 |
| O=C(NCc1cccs1)C1CCN(c2ccc(S(=O)(=O)N3CCOCC3)cc2Cl)CC1 | 646 |
| O=C(/C=C/c1ccc(-c2ccccc2[N+](=O)[O-])o1)c1ccc(Br)cc1 | 4780 |

| Compound | AC26 [nM] |
| --- | --- |
| Cc1ccc(/C=N/NC(=O)CCn2nc(C)cc2C)c(C)c1 | 5510 |
| Oc1ccc(Nc2nc(N3CCCC3)c3ccccc3n2)cc1 | 335 |
| Cc1cc(NC(=O)CSc2nc(-c3ccco3)cc(C(F)(F)F)n2)no1 | 565 |
| Cc1[nH]nc2c1C(c1ccc(-c3ccc(Cl)cc3)o1)C(C#N)=C(N)O2 (stereo not drawn) | 1140 |
| O=C1CCCC2=C1C1(CCCCC1)N=C(Nc1nc3ccccc3o1)N2 | 5790 |
| CCCCCCC(=O)N(O)C1CC(=O)N(c2ccc(F)cc2)C1=O (stereo not drawn) | 1290 |
| CN(C)CCOc1nc(-c2ccccc2)nc2c1oc1ccccc12 | 2700 |
| COc1ccc(NC(=O)c2cc3c(=O)n(C)c4ccccc4c3n2C)cc1OC | 2940 |
| CCn1c(=O)c2cc(C(=O)NCCN(C)C)sc2c2ccccc21 | 5230 |
| COc1cc(C(=O)N/N=C/c2ccccn2)cc(OC)c1OC | 1160 |
| O=C1NC(=O)C(=Cc2c(Cl)cccc2Cl)C(=O)N1 | 2240 |
| O=C(N/N=C/c1c(-c2ccccc2)[nH]c2ccccc12)c1cccnc1 | 117 |
| CCOC(=O)c1ccccc1NS(=O)(=O)c1ccc(OC)cc1 | 16000 |
| O=C(N/N=C/c1ccco1)c1ccccc1OCc1ccccc1Cl | 1010 |
| COC(=O)c1c(C)[nH]c(C(=O)/C=C/c2cccc(Cl)c2)c1C | 2410 |
| O=C(N=Nc1c(O)[nH]c2ccc(Br)cc12)c1cc(-c2cccs2)nc2ccccc12 | 4850 |
| CC(=O)N1N=C(c2ccc(NS(=O)(=O)c3ccccc3)cc2)CC1c1ccco1 (stereo not drawn) | 912 |
| C=CCn1c(SCc2c(C)noc2C)nc2ccccc2c1=O | 163 |
| Cc1ccc(NC(=O)c2ncn(CCCNCc3ccccc3)n2)cc1C | 800 |
| CCOc1cc(C)nc(NCc2ccccc2)n1 | 14300 |
| C[C@H]1CN([C@@H](C)CO)C(=O)Cc2cc(NC(=O)CCC(F)(F)F)ccc2O[C@H]1CN(C)S(=O)(=O)c1ccc(F)cc1 | 5300 |
| C=CCOc1ccc(/C=C2\SC(N3CCCCC3)=NC2=O)cc1 | 5420 |

| Compound | AC26 [nM] |
| --- | --- |
| COc1ccc(NCC(=O)n2c(C)c(C)c3ccccc32)cc1 | 3640 |
| Cc1nc(-c2ccccc2)sc1-c1nc(-c2ccncc2)ncc1S(=O)(=O)c1ccccc1 | 956 |
| CCC1=Nc2cc(C(=O)NCCCOC)ccc2Sc2ccccc21 | 422 |
| O=C(N/N=C\C=C\c1ccc([N+](=O)[O-])o1)c1cccs1 | 7850 |
| COc1cccc(C(=O)Nc2sc3c(c2C#N)CCN(C(C)=O)C3)c1 | 9.19 |
| COc1ccccc1N1CCN(C(=O)c2[nH]c(C(F)(F)F)nc2-c2ccccc2)CC1 | 2770 |
| COc1cccc(Oc2ccc(C(F)(F)F)cc2NC(=O)CN2C(=O)NC3(CCCC3)C2=O)c1 | 4850 |
| Cc1ccc(OCCNC(=O)C(=O)NCc2ccco2)cc1 | 6100 |
| Nc1c2ccccc2nc2ccccc12 | 364 |
| COc1ccc(NC(=O)C2(C)Cc3c(-c4cccc(C(N)=O)c4)ccnc3O2)cn1 (stereo not drawn) | 10700 |
| Cc1ccc(S(=O)(=O)NC2=C(N3CCN(Cc4ccccc4)CC3)C(=O)c3ccccc3C2=O)cc1 | 3810 |
| COc1cc(NC(=O)NCc2ccco2)ccc1-c1ccc(NC(=O)NCc2ccco2)cc1OC | 4350 |
| CCOc1ccccc1NC(=O)CN(c1ccc(OC)cc1)S(=O)(=O)c1c(C)noc1C | 4150 |
| COc1ccc(OC)c2nc3c(C(=O)NCCN(C)C)cccc3nc12 | 187 |
| CC1CN(C(=O)c2ccc(COc3ccc(C(C)C)cc3)o2)CC(C)O1 (stereo not drawn) | 3780 |
| COc1ccccc1C(=O)Nc1nnc(CCc2ccccc2)s1 | 3720 |
| COc1ccc(CCCNC(=O)C2Cc3c(-c4cccc(C(C)=O)c4)ccnc3O2)cc1 (stereo not drawn) | 12600 |
| O=C(/C=C/c1ccccc1)c1ccccc1 | 6780 |
| CC(=O)Nc1cccc(-c2ccnc3c2CC(C)(C(=O)Nc2cccc(C(C)=O)c2)O3)c1 (stereo not drawn) | 9480 |
| CCn1c2ccccc2c2cc(NC(=O)COC(=O)Cc3cn4ccsc4n3)ccc21 | 1790 |
| COc1ccc(NC(=O)C2(C)Cc3c(-c4cccc(NC(C)=O)c4)ccnc3O2)cn1 (stereo not drawn) | 10100 |
| COc1ccc2c(c1)OC[C@H]1[C@H]2N2C(=O)c3cc(OC)ccc3NC(=O)[C@@]2(C)[C@H]1c1ccccc1 | 1360 |

| Compound | AC26 [nM] |
| --- | --- |
| Cn1nc(-c2ccc(Cl)cc2)c2cc(C(=O)NCCCN3CCOCC3)sc21 | 4330 |
| CCCCOc1ccccc1C1CC(=O)NC2=C1C(=O)CCC2 (stereo not drawn) | 1320 |
| COC(=O)c1ccc2c(=O)n(Cc3ccco3)c(SCC(=O)Nc3cc(C)on3)nc2c1 | 2190 |
| Cc1cc2[nH]c3ccccc3c2c(C)n1 | 3670 |
| COc1ccc(Cl)cc1NC(=O)CN(C)CC(=O)Nc1cc(OC)c(OC)c(OC)c1 | 10200 |
| O=C(O)CCC/C=C\C[C@@H]1[C@@H](/C=C/[C@@H](O)COc2cccc(Cl)c2)[C@H](O)C[C@@H]1O | < 1.2 |
| CC1CN(C(=O)c2cc(-c3ccncc3)nc3ccccc23)CC(C)O1 (stereo not drawn) | 2020 |
| COc1ccc2c(c1)OC[C@H]1[C@H]2N2C(=O)c3cc(Br)ccc3NC(=O)[C@@]2(C)[C@H]1c1ccccc1 | 976 |
| CC(=O)n1cc(/C=N/NC(=O)c2sc(C)nc2C)c2ccccc21 | 10000 |
| Oc1cc(NCc2ccc(Cl)cc2)cc2cccnc12 | 6410 |
| CN1CCN(CC(=O)Nc2cc(N(C)C)nc3ccccc23)CC1 | 6650 |
| COc1cc(C(=O)NC2CCN(C)CC2)ccc1Nc1ncc2c(n1)N(C1CCCCC1)CCC(=O)N2C | 11.3 |
| CCOC(=O)COc1cccc2c(=O)n(CC(=O)NCc3ccccc3)ccc12 | 2540 |
| Cc1ccc(S(=O)(=O)N2CCN(C(=O)COC(=O)c3cc([N+](=O)[O-])ccc3NCCO)CC2)c(C)c1 | 2430 |
| CCOc1cc(-c2c(C#N)c(N)nc3c2CCc2ccccc2-3)ccc1O | 9010 |
| CCN(CC)S(=O)(=O)c1ccc(N2CCOCC2)c(NC(=O)c2[nH]c(C)c(C(C)=O)c2C)c1 | 1860 |
| CCc1ccc(OCC(=O)Nc2ccc(-c3cc4ccccc4oc3=O)c(OC)c2)cc1 | 3090 |
| CCOc1ccc(N2CCc3c(C)nc(SC)nc32)cc1 | 2650 |
| Cc1ccc(-c2nc3ncccc3o2)cc1NC(=O)c1ccc([N+](=O)[O-])o1 | 4010 |
| COc1ccccc1-c1cc(NC=O)c2ncc(-c3cccc(C(=O)N(C)C)c3)n2c1 | 4020 |

Source: PubChem BioAssay AID624491 (Broad Institute, 2012)
